From patent publication US20150064221A1, “COMPOUNDS HAVING IMMUNOMUDULATOR ACTIVITY” (priority 2012, published 2015)
“Also recorded” adds a separate entry of the source.

Key:
[1] = test system: Peritoneal macrophages (PM); experiment: Ex vivo cytokine synthesis by PM from treated mice; assay type: cell-based
Protocol: These experiments were carried out to explore if intraperitoneal (i.p.) or oral administration (p.o.) in mice with VGX-1027 could influence the proliferative response of SMNC and the production of IL-1β, IL-10, TNF-α, IFN-γ and MIF from isolated PM and SMNC. PM and SMNC isolated from mice treated in vivo with VGX-1027 for 7 consecutive days intraperitoneally (0.5 mg/mouse), or orally (2.5 mg/mouse), or isolated from control animals that received VGX-1027 vehicle (Na2HPO4/H2O), or were without any treatment. 24 h after the last VGX-1027 treatment, PM and SMNC were collected for further in vitro stimulation and analysis.

[2] = test system: undifferentiated CD4 T cells; experiment: Proliferation of undifferentiated CD4 T cells; assay type: cell-based
Protocol: (A) Cell viability was measured via the MTT assay after 48 hours of treatment. (B) TNF-α levels were measured 48 hours post LPS (5 μg/ml) stimulation. (C) CD4 T cells were stimulated with either ConA (10 μg/ml) or anti-CD3/CD28 beads (10 μg/ml), and proliferation was measured via 3H-thymidine incorporation.

DNBS-induced colitis = experiment: DNB/DNBS-induced colitis; assay type: in vivo, mice
Protocol: Mice were injected with DNBS into the rectum and administered VGX-1027 an hour later; 4 days after, the mice were sacrificed, and the colons were isolated and analyzed. Variation in total body weight (A), stool consistency (B), macroscopic score (C), necrotic areas 9D), colon weight (E), and amount of cytokines in colon homogenate were determined Macroscopic score was determined by the following criteria: 0=no damage; 1=localized hyperaemia and/or oedema; 2=linear ulcer<half of the width of the colon; 3=linear ulcer>half the width of the colon; 4=circular ulcer<1 cm; 5=circular ulcer between 1 and 2 cm; 6=circular ulcer>2 cm.
Within 5 days after challenge with dinitrobenzene sulfonic acid (DNB), mice develop colitis. The disease severity is evaluated based on a macroscopic score. The vehicle-treated control mice and untreated mice developed colitis with a predictable and progressive increase in inflammation and body weight loss.
The colons of the control mice and of the VGX-1027 treated mice were removed, sectioned, fixed, and stained with hematoxylin and eosin. […] The tissue myeloperoxidase activity is a well established marker to assess the inflammatory cell (mainly neutrophils) infiltration. […] We counted an average of 8.9±1.2 (means±SD) cells/high power field of DNB-induced animals, whereas there were only 3.37±0.8 cells/high-power field in DNB-induced animals pretreated with VGX-1027 (p<0.0001).
DNBS challenge of mice induced clinical features of colitis including weight loss, diarrhea, intestinal damage, and necrotic regions (FIG. 11a-d). […] An increase in the weight of the colon is an indirect measure of increased thickness of the walls due to inflammation.

[3] = test system: Thioglycollate-elicited macrophages; experiment: TNF-α production of macrophages treated with TLR agonists; assay type: cell-based; settings: 10 μg/ml, 48 hours
Protocol: (A) Thioglycollate-elicited macrophages (1×10^6/ml) were stimulated with either LPS (5 μg/ml), zymosan (ZYM, 50 μg/ml), MDP (25 μg/ml), or Poly(I:C) (50 μg/ml) in the presence or absence of VGX-1027 (10 μg/ml). TNF-α was measured 48 hours post treatment. (B) Relative phosphorylations of 1-κBα and p38 were measured at the indicated time points following stimulation with LPS (5 μg/ml). The y-axis is presented as fold change in comparison to the values obtained from LPS-treated cultures alone. * p<0.05.
Thioglycollate-elicited macrophages were treated with multiple TLR agonists for 48 hours. TNF-α production was measured. The following agonists were used to activate the various TLRs.

splenic DCs = experiment: LPS-induced maturation of dendritic cells in vivo; design: species or system mice; settings: 0.5 mg/mouse 1 hour prior to LPS
Protocol: Mice were given VGX-1027 (0.5 mg/mouse) or a control, and then injected with LPS (25 μg/mouse) 1 hour later. At 3 hours post LPS administration, the mice were sacrificed, and (A) % of splenic DCs with CD86 and (B) MFI of CD86 from the CD86+ cells were measured.
To determine if this effect could be translated in vivo, mice were injected with LPS and the % of DCs that express CD86, which is a maturation marker, and the MR of CD86 on the positive cells were measured. The activation of DCs via CD86 expression, and not total cytokine levels, was measured in order to ascertain the direct affects of VGX-1027 on DCs. In vivo cytokine measurement could be confounded by other cytokine producing cells, such as macrophages. The mice were injected with LPS or LPS+VGX-1027 (VGX-1027 was given 1 hour prior to LPS administration) 3 hours post injection. The spleen from these mice were extracted and analyzed for DCs with CD86 expression. […] Moreover, the VGX1027-induced decrease in the percentage of cells that expressed CD86 and was associated with a decrease in the expression of CD86 per cell (FIG. 7b). Therefore, VGX-1027 inhibits LPS-induced production of Th17-promoting inflammatory cytokines by DCs in vitro and reduces LPS-induced maturation of DCs in vivo.

Normal human PBMCs = experiment: Ex vivo immune effects in PBMCs with plasma of dosed subjects; assay type: cell-based; settings: LPS 5 μg/ml + plasma of 5th day after dosing
Protocol: Normal human PBMCs were isolated and cultured in the presence of LPS (5 μg/ml) with or without VGX-1027 treated plasma. Plasma samples were obtained by blood collection before and on the 5th day after VGX-1027 dosing in steady state. Cell free supernateants were analyzed for production of TNF-α and IL-1β 24 hours post treatment. Cytokine levels (pg/ml) were assayed by ELISA. Representative results were correlated with pro-inflammatory cytokine inhibition.

[4] = DNBS, treatment from 1 hour after DNBS

O=C(O)CC1CC(c2ccccc2)=NO1 (centres unmarked) [VGX-1027, 3-phenyl-4,5-dihydro-5-isoxazoleacetic acid]
IL-10 synthesis ([1]; mice treated 7 days): impaired synthesis | TNF-α synthesis ([1]; mice treated 7 days): impaired synthesis | IL-1 β synthesis ([1]; mice treated 7 days i.p. 0.5 mg/mouse or orally 2.5 mg/mouse): impaired synthesis | MIF expression ([1]; mitogenic stimulation): normal pattern | proliferation ([2]; CD3/CD28 stimulation): affected neither | INF-γ production ([2]; ConA stimulation): affected neither | proliferation ([2]; ConA stimulation): affected neither | increase in colon weight (DNBS-induced colitis; DNB colitis): significantly lower | weight loss (DNBS-induced colitis; DNB colitis): significant reduction | tissue damage (histology) (DNBS-induced colitis; DNB colitis, treated before induction): significantly reduced | progression of inflammatory colitis (DNBS-induced colitis; DNB, p<0.001): significantly attenuated | neutrophils infiltrating (DNBS-induced colitis; DNB-induced animals pretreated, means±SD): 3.37±0.8 cells/high-power field | IL-18 in colon homogenates (DNBS-induced colitis; [4]): decreased amounts | TNF-α in colon homogenates (DNBS-induced colitis; [4]): decreased amounts | colon weight (DNBS-induced colitis; [4]): decreased | features of colitis / degree of protection (DNBS-induced colitis; DNBS, treatment from 1 hour after until 4 days after DNBS): markedly improved; also recorded: comparable to that afforded by 1 mg/kg of dexamethasone | inflammatory cell infiltration (myeloperoxidase activity) (DNBS-induced colitis; colon tissue, 5 days after induction, p<0.0001): significant reduction | TNF-α production ([3]; LPS (5 μg/ml)): inhibited | TNF-α production ([3]; MDP (25 μg/ml)): inhibited | TNF-α production ([3]; ZYM (50 μg/ml)): inhibited | TNF-α production ([3]; poly(I:C) (50 μg/ml)): did not affect | expression of CD86 per cell (MFI) (splenic DCs): decrease | overall percentage of DCs in the spleen (splenic DCs): without affecting | % of DCs that expressed CD86 (splenic DCs; 3 hours post LPS): reduced this percentage | IL-1β levels (Normal human PBMCs): repressed to levels comparable to the negative controls | TNF-α levels (Normal human PBMCs): repressed to levels comparable to the negative controls
